One assay addresses human IDO1 (Homo sapiens (Human), UniProt P14902). The assay can be described thus: Inhibition activity on human IDO1 (enzyme assay, absorbance at 480 nm). The assay is classed as biochemical. Conditions: read-out: IC50 for inhibiting the activity of human IDO1. How it is done:
Assay for Determining the Inhibition Activity of the Present Compounds on Human IDO1
Human IDO1 activity was tested in vitro by the following method.
This method is used to determine the inhibition effect of the compounds of the present invention on the activity of human IDO1.
The human IDO1 gene was transferred to Pet30a plasmid by gene cloning, and then transferred to competent Escherichia coli Rosseta. The IDO1 gene was scaled-up by culturing in liquid LB (Luria-Bertani) medium [which was prepared per liter according to “Molecular Cloning A Laboratory Manual” (J. Sambrook, D. W. Russell)]). The bacteria were collected and lysed by ultrasonic waves. The purified IDO1 was obtained by eluting from a column.
For testing, 24 μL of enzyme (IDO1) was diluted 100 times with 50 mM KPB to 2400 μL. The concentration of the enzyme solution was 2.6 ng/μL. A 96 well reaction plate (AXYGEN, PCR-96-FLT-C) (hereinafter referred to as the “reaction plate”) was added with the enzyme solution at 24 μL/well. The blank well was added with 24 μL of KPB [Preparation of KPB buffer (50 mM): 6.805 g of KH2PO4 was weighed using an analytical balance, and placed into a 1000 mL beaker, deionized water was added with a measuring cylinder to 900 ml, the pH was adjusted to 6.5 by 1M KOH, then the mixture was introduced into a 1 L measuring cylinder, and water was added to 1 L. It was stored at 4° C.]. Then, 1 μL of a compound or DMSO was added into the corresponding wells in the reaction plate. Preparation of solution A: 200 μL of 500 mM L-sodium ascorbate were added with 1050 μL of KPB, then the mixture was mixed uniformly for 3 seconds at the maximum speed in a turbine mixer. Solution B: 100 μL of 10 mM tryptophan were added with 100 μL of 100,000 unit/mL catalase, 5 μL of 10 mM methylene blue, and 1050 μL of KPB successively, then the mixture was mixed uniformly for 3 seconds at the maximum speed in a turbine mixer. Then, 1200 μL of solution A and 1200 μL of solution B were taken and mixed uniformly for 3 seconds at the maximum speed in a turbine mixer. The mixture was added to the reaction plate at 24 μL/well. The reaction plate was placed in a plate centrifuge and centrifuged for 15 seconds at the maximum speed, so that the reaction liquids converged to the bottom. The reaction mixture was mixed uniformly for 30 seconds on a shaker, and incubated for 1 hour at 37° C. in a constant temperature incubator. In the reaction plate, 30% (W/V) trichloroacetic acid was added at 10 μL/well, then the mixture was incubated for 15 minutes at 65° C. in an incubator. The reaction plate was centrifuged in a centrifuge for 5 minutes at 4700 RPM at room temperature. […] Then, 2% (W/V) 4-(dimethylamino)benzaldehyde/glacial acetic acid solution was added at 40 μL/well, and the mixture was mixed uniformly for 1 minute on a shaker at the maximum speed. After incubation for 2 minutes at room temperature, the absorbance at 480 nm was read on a Synergy HT (BIOTEK) reader.
The inhibition activity of the compounds of the present invention on human IDO1 was tested by the assay described above.

Another assay deals with human TDO (Homo sapiens (Human), UniProt P48775). Nature of the assay: Inhibition activity on human TDO (tryptophan 2,3-dioxygenase) (enzyme assay, absorbance at 480 nm). The assay is classed as biochemical. Conditions: read-out: IC50 for inhibiting the activity of human TDO. How it is done:
Assay for Determining the Inhibition activity of the Compounds of the Present Invention on Human TDO (tryptophan 2,3-dioxygenase)
Human TDO activity was tested in vitro by the following method.
This method is used to determine the inhibition effect of the compounds of the present invention on the activity of human TDO.
Plasmids constructed with the human TDO gene were transferred to competent Escherichia coli Rosseta. The TDO gene was scaled-up by culturing in liquid LB (Luria-Bertani) medium [which was prepared per liter according to “Molecular Cloning A Laboratory Manual” (J. Sambrook, D. W. Russell)]). The bacteria were collected and lysed by ultrasonic waves. The purified TDO was obtained by eluting from a column.
For testing, 24 μL of enzyme (TDO) was diluted 100 times with 50 mM KPB to 2400 μL. The concentration of the enzyme solution was 2.6 ng/μL. A 96 well reaction plate (AXYGEN, PCR-96-FLT-C) (hereinafter referred to as the “reaction plate”) was added with the enzyme solution at 24 μL/well. The blank well was added with 24 μL of KPB [Preparation of KPB buffer (50 mM): 6.805 g of KH2PO4 was weighed using an analytical balance, and placed into a 1000 mL beaker, deionized water was added with a measuring cylinder to 900 mL, the pH was adjusted to 6.5 by 1M KOH, then the mixture was introduced into a 1 L measuring cylinder, and water was added to 1 L. It was stored at 4° C.]. Then, 1 μL of a compound or DMSO was added into the corresponding wells in the reaction plate. Preparation of solution A: 200 μL of 500 mM L-sodium ascorbate was added with 1050 μL of KPB, then the mixture was mixed uniformly for 3 seconds at the maximum speed in a turbine mixer. Solution B: 100 μL of 10 mM tryptophan was added with 100 μL of 100,000 unit/ml catalase, 5 μL of 10 mM methylene blue, and 1050 μL of KPB successively, then the mixture was mixed uniformly for 3 seconds at the maximum speed in a turbine mixer. Then, 1200 μL of solution A and 1200 μL of solution B were taken and mixed uniformly for 3 seconds at the maximum speed in a turbine mixer. The mixture was added to the reaction plate at 24 μL/well. The reaction plate was placed in a plate centrifuge and centrifuged for 15 seconds at the maximum speed, so that the reaction liquids converged to the bottom. The reaction mixture was mixed uniformly for 30 seconds on a shaker, and incubated for 1 hour at 37° C. in a constant temperature incubator. In the reaction plate, 30% (W/V) trichloroacetic acid was added at 10 μL/well, then the mixture was incubated for 15 minutes at 65° C. in a incubator. The reaction plate was centrifuged in a centrifuge for 5 minutes at 4700 RPM at room temperature. […] Then, 2% (W/V) 4-(dimethylamino)benzaldehyde/glacial acetic acid solution was added at 40 μL/well, then the mixture was mixed uniformly for 1 minute on a shaker at the maximum speed. After incubation for 2 minutes at room temperature, the absorbance at 480 nm was read on a Synergy HT Reader.
The inhibition activity of the compounds of the present invention on human TDO was tested by the assay described above.

The target of a further assay is IDO in HeLa cells (Homo sapiens (Human), UniProt P14902). Nature of the assay: Inhibition activity on IDO in HeLa cells (INF-γ induced). The assay is classed as cell-based. Conditions: read-out: IC50 for inhibiting the activity of IDO in HeLa cells. The method, then:
Assay for Determining the Inhibition Activity of the Present Compounds on IDO in HeLa Cells
IDO activity in HeLa cells was tested in vitro by the following method.
This method is used to determine the inhibition effect of the compounds of the present invention on the activity of IDO in HeLa cells. (Note: indoleamine 2,3-dioxygenase (IDO) is expressed in the HeLa cell line and induced by interferon gamma (INF-γ)).
The supernatant was removed, serum-free DMEM high glucose medium was added at 90 μL/well, then the compounds contained in the culture medium with INF-γ and tryptophan were added at 10 μL/well (the final concentrations: 10000, 1000, 100, 10, 1, 0.1 nM). […] Then, 80 μL of the supernate was transferred from the 96-well cell culture plate to a 96 well round-bottomed plate, then 30% (W/V) trichloroacetic acid was added at 16 μL/well, then the mixture was incubated for 25 minutes at 65° C. in an incubator. The reaction plate was centrifuged in a centrifuge for 5 minutes at 4700 RPM. Then, 50 μL of the supernatant was transferred from the reaction plate to a 96-well flat-bottomed transparent plate by a multi-channel pipette. Then, 2% (W/V) 4-(dimethylamino)benzaldehyde/glacial acetic acid solution was added at 50 μL/well, then the mixture was mixed uniformly for 1 minute on a shaker. After incubation for 2 minutes at room temperature, the absorbance at 480 nm was read on a Synergy HT Reader.
The inhibition activity of the compounds of the present invention on IDO in HeLa cells was tested by the assay described above.

Setting [1] is: purified recombinant human IDO1, 1 hour at 37° C.
The mark [2] stands for this setting: purified recombinant human TDO, 1 hour at 37° C.
Where [3] appears, read: HeLa cells, INF-γ and tryptophan, 48 hours.

Counter-ions that a name gives are not always drawn. Like-named read-outs stand apart in the source and are kept apart here.

Chain of human IDO1 (P14902 whole entry): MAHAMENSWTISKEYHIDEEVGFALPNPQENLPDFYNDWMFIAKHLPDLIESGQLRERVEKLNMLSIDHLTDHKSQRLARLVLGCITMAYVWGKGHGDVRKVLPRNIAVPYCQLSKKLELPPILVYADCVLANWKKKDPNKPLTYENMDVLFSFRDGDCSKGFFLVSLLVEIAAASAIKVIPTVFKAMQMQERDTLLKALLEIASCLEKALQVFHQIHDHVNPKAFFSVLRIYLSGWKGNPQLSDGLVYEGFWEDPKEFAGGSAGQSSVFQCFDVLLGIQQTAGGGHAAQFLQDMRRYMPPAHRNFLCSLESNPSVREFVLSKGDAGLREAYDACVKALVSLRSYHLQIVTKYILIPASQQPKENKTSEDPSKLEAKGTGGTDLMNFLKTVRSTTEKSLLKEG
Chain of IDO in HeLa cells (P14902 whole entry): as above
Chain of human TDO (P48775 whole entry): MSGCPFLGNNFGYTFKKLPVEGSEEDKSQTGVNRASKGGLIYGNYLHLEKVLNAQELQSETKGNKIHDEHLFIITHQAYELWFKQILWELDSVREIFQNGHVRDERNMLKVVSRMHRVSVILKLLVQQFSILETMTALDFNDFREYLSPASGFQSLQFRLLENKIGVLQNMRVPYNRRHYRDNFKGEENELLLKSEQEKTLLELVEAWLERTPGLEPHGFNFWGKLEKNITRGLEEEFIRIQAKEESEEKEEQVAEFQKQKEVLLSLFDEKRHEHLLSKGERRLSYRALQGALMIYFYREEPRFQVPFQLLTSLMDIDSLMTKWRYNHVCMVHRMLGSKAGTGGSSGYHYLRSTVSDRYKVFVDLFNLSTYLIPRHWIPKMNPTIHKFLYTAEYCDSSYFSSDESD

In the case of `Fc1cccc2c1C(C1CCN(c3ccccc3)CC1)n1cncc1-2` (centres unmarked) [Example 1, 6-fluoro-5-(1-phenylpiperidin-4-yl)-5H-imidazo[5,1-a]isoindole trifluoroacetate], the IC50 (commonly the point on the concentration scale where inhibition reaches its midpoint) stood at 87.4 nM at human IDO1 and 338 nM on human TDO.
In the case of `Fc1ccc2c(c1)C(C1CCN(c3ccccc3)CC1)n1cncc1-2` (centres unmarked) [Example 2, 7-fluoro-5-(1-phenylpiperidin-4-yl)-5H-imidazo[5,1-a]isoindole trifluoroacetate], the IC50 on human TDO stood at 215 nM.
On to `N#Cc1ccc(N2CCC(C3c4c(F)cccc4-c4cncn43)CC2)cc1` (centres unmarked) [Example 5, 4-(4-(6-fluoro-5H-imidazo[5,1-a]isoindol-5-yl)piperidin-1-yl)benzonitrile trifluoroacetate], for which the IC50 on human IDO1 was 81.2 nM; on human TDO it was 394 nM; on IDO in HeLa cells it was 353 nM.
Take `NC(=O)c1ccc(N2CCC(C3c4c(F)cccc4-c4cncn43)CC2)cc1` (centres unmarked) [Example 6, 4-(4-(6-fluoro-5H-imidazo[5,1-a]isoindol-5-yl)piperidin-1-yl)benzamide trifluoroacetate]: the IC50 at human TDO amounted to 394 nM.
Turning to `Fc1cccc2c1C(C1CCN(c3ncc(-c4cnn(C5CCOCC5)c4)cn3)CC1)n1cncc1-2` (centres unmarked) [Example 18, 6-fluoro-5-(1-(5-(1-(tetrahydro-2H-pyran-4-yl)-1H-pyrazol-4-yl)pyrimidin-2-yl)piperidin-4-yl)-5H-imidazo[5,1-a]isoindole], the values for the concentration for half-maximal inhibition (IC50) at human IDO1 (setting [1]), at human TDO (setting [2]) and on IDO in HeLa cells (setting [3]) were 34 nM, 361 nM and 198 nM, respectively.
The matching figures for `Fc1cccc2c1C(C1CCN(c3ncc(-c4ccccc4)s3)CC1)n1cncc1-2` (centres unmarked) [Example 23, 2-(4-(6-fluoro-5H-imidazo[5,1-a]isoindol-5-yl)piperidin-1-yl)-5-phenylthiazole trifluoroacetate]: 48.2 nM, 399 nM and 439 nM.
In the case of `Fc1cccc2c1C(C1CCN(c3ccccc3)C1)n1cncc1-2` (centres unmarked) [Example 25, 6-fluoro-5-(1-phenylpyrrolidin-3-yl)-5H-imidazo[5,1-a]isoindole trifluoroacetate], the IC50 on human TDO worked out at 257 nM.
Regarding `OC[C@@H](O)Cn1cc(-c2ccc(N3CCC(C4c5c(F)cccc5-c5cncn54)CC3)cc2)cn1` (stereo partly drawn) [Example 29, (2S)-3-(4-(4-(4-(6-fluoro-5H-imidazo[5,1-a]isoindol-5-yl)piperidin-1-yl)phenyl)-1H-pyrazol-1-yl)propane-1,2-diol], the half-inhibitory concentration (IC50) at human IDO1 (setting [1]) was determined as 35.9 nM; on human TDO (setting [2]), 220 nM; at IDO in HeLa cells (setting [3]), 292 nM.
The matching figures for `OC[C@H](O)Cn1cc(-c2ccc(N3CCC(C4c5c(F)cccc5-c5cncn54)CC3)cc2)cn1` (stereo partly drawn) [Example 30, (2R)-3-(4-(4-(4-(6-fluoro-5H-imidazo[5,1-a]isoindol-5-yl)piperidin-1-yl)phenyl)-1H-pyrazol-1-yl)propane-1,2-diol trifluoroacetate]: 58.7 nM, 319 nM and 334 nM.
For the compound `Nc1cc(-c2nnc(N3CCC(C4c5c(F)cccc5-c5cncn54)CC3)s2)ccn1` (centres unmarked) [Example 36, 4-(5-(4-(6-fluoro-5H-imidazo[5,1-a]isoindol-5-yl)piperidin-1-yl)-1,3,4-thiadiazol-2-yl)pyridin-2-amine trifluoroacetate], the half-maximal inhibitory concentration (IC50) at human IDO1 (setting [1]) was found to be 10.6 nM; at human TDO (setting [2]) it was 104 nM; at IDO in HeLa cells (setting [3]), 27.8 nM.
The like results for `CS(=O)(=O)N1CCC(Oc2ccc(N3CCC(C4c5c(F)cccc5-c5cncn54)CC3)cc2)CC1` (centres unmarked) [Example 39, 6-fluoro-5-(1-(4-((1-(methylsulfonyl)piperidin-4-yl)oxy)phenyl)piperidin-4-yl)-5H-imidazo[5,1-a]isoindole] were, in that order, 15.5 nM, 243 nM and 198 nM.
As to `N#Cc1ccc(N2CCC(C3c4c(F)cccc4-c4cncn43)CC2)cc1F` (centres unmarked) [Example 45, 2-fluoro-4-(4-(6-fluoro-5H-imidazo[5,1-a]isoindol-5-yl)piperidin-1-yl)benzonitrile], the values for the 50% inhibitory concentration (IC50) at human IDO1 (setting [1]), on human TDO (setting [2]) and at IDO in HeLa cells (setting [3]) were 8.84 nM, 234 nM and 231 nM, respectively.
In the case of `Fc1ccc(N2CCC(C3c4c(F)cccc4-c4cncn43)CC2)cc1F` (centres unmarked) [Example 46, 5-(1-(3,4-difluorophenyl)piperidin-4-yl)-6-fluoro-5H-imidazo[5,1-a]isoindole], the IC50 was 6.68 nM on human IDO1, 68.9 nM at human TDO and 69.1 nM on IDO in HeLa cells (setting [3]).
